Where “and” joins values, the source holds several entries; their conditions need not be identical. Equal values may be shown once.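 Grown in 96-well plates, cells were treated for 48 hours with each compound at five concentrations. Insufficient inhibition: endpoint recorded as highest concentration tested. At the GI50, growth is halved. TGI is the concentration that stops growth completely.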
What was measured:
Assay in all cases: NCI tumour cell line growth inhibition, 48 h
HOP-92 NSCLC = tested on: HOP-92 NSCLC
A549 NSCLC = tested on: A549 NSCLC
SF-295 CNS = tested on: SF-295 CNS
OVCAR-3 ovarian = tested on: OVCAR-3 ovarian
OVCAR-4 ovarian = tested on: OVCAR-4 ovarian
K-562 leukemia = tested on: K-562 leukemia
SN12C renal = tested on: SN12C renal
CCRF-CEM leukemia = tested on: CCRF-CEM leukemia
SK-MEL-5 melanoma = tested on: SK-MEL-5 melanoma
OVCAR-5 ovarian = tested on: OVCAR-5 ovarian

| SMILES | TGI (HOP-92 NSCLC) [µM] | TGI (A549 NSCLC) [µM] | TGI (SF-295 CNS) [µM] | TGI (OVCAR-3 ovarian) [µM] | TGI (OVCAR-4 ovarian) [µM] | TGI (K-562 leukemia) [µM] | TGI (SN12C renal) [µM] | TGI (CCRF-CEM leukemia) [µM] | TGI (SK-MEL-5 melanoma) [µM] | TGI (OVCAR-5 ovarian) [µM] | GI50 (A549 NSCLC) | GI50 (SF-295 CNS) | GI50 (OVCAR-3 ovarian) | GI50 (OVCAR-4 ovarian) | GI50 (K-562 leukemia) [µM] | GI50 (SN12C renal) | GI50 (CCRF-CEM leukemia) | GI50 (SK-MEL-5 melanoma) | GI50 (HOP-92 NSCLC) [µM] | GI50 (OVCAR-5 ovarian) [µM] |
| --- | --- | --- | --- | --- | --- | --- | --- | --- | --- | --- | --- | --- | --- | --- | --- | --- | --- | --- | --- | --- |
| COc1c(O)ccc2c1CN1CCc3cc4c(cc3C1C2)OCO4 (stereo not drawn) | > 100 | > 100 | > 96.6 | > 83.2 | > 100 | > 100 | > 84.4 | > 100 | > 100 | > 100 |  |  |  |  |  |  |  |  |  |  |
| COc1ccc(-c2cn[nH]c2-c2cc(OC)c(OC)c(OC)c2)cc1N | > 100 | > 100 | > 100 |  | > 100 | > 100 | > 100 | > 100 |  | > 100 | < 0.01 µM and 0.0425 µM | < 0.01 µM and 0.0134 µM | < 0.01 µM and 0.0281 µM | 0.013 µM and 0.0877 µM | < 0.01 | < 0.01 µM and 0.0802 µM | < 0.01 µM and 0.0347 µM | < 0.01 µM and 0.0405 µM |  |  |
| CC(C)(O)C1OCC(C2CCC3(C)C4=CCC5C(C)(C)C(O)CCC5(C)C4CCC23C)CC1O (stereo not drawn) | 27.6 | 31.8 | 26.8 | 40 | 27.5 | 17.3 | 27.5 | > 100 | 27.8 | 39.6 |  |  |  |  |  |  |  |  |  |  |
| C=C1CC[C@@H]2C(C)(C)CCC[C@@]2(C)[C@@H]1Cc1cc(O)ccc1O | 10.6 | 23 | 28.2 | 18.5 | 3.72 | 16.7 | 15.6 | 5.23 | 19.7 | 31.3 |  |  |  |  |  |  |  |  |  |  |
| O=C1CCC2(C=C(Br)C(=O)C(Br)=C2)O1 | 8.89 | 67.3 | 31.7 | 3.02 | 4.34 | 21.7 | 35.3 | 6.25 | 30 | 29.7 | 24.5 µM | 15.9 µM | 1.65 µM | 2.08 µM | 2.81 | 16.3 µM | 1.97 µM | 16.4 µM | 3.07 | 15 |
| CC(NNC(=S)N1CCCCCC1)c1ccc2ccccc2n1 (stereo not drawn) | 34.3 | 27 | 13.2 | 18.8 | 13.8 | > 100 | > 57.3 | > 100 | 14.8 | 38.5 | 1.13 µM | 0.843 µM | 0.41 µM | 0.0701 µM | 2.14 | 1.84 µM | 0.765 µM | 1.95 µM | 0.769 | 9.5 |
| O=C(O)c1cc2c(cn1)[nH]c1ccccc12 | > 100 | > 100 | > 100 | > 100 | > 100 | > 100 | > 100 | > 100 | > 100 | > 100 |  |  |  |  |  |  |  |  |  |  |
| OCCCCC#Cc1ccccc1C#Cc1ccccc1C(F)(F)F | 18.4 | 16.6 | 6.7 | 9.28 | 36.4 | 13.9 | 26.5 | 17.2 | 24.4 | 30.8 | 4.36 µM | 2.34 µM | 2.3 µM | 18.4 µM | 1.09 | 12.2 µM | 3.91 µM | 11.6 µM | 6.14 | 14.7 |
| N.N.NC(CS)C(=O)[O-].NC(CS)C(=O)[O-].[Pt+4] (stereo not drawn) | > 50 | > 50 | > 50 | > 50 | > 50 | > 50 | > 50 | > 50 | > 50 | > 50 | > 50 µM | > 50 µM | > 50 µM | > 50 µM | > 50 | > 50 µM | > 50 µM | > 50 µM | > 50 | > 50 |
| CC1=Cc2cc3[n-]c(cc4nc(cc5[n-]c(cc1n2)cc5C)C(C)=C4CCC(=O)O)c(CCC(=O)O)c3C.[Pd+2] | > 23.8 | 54.7 | 36.3 | 27.1 | > 46.8 | > 37 | 17.9 | 13.7 | 19.6 | 58.2 | 32.1 µM | 17.5 µM | 7.51 µM |  | 11 | 9.17 µM | 5.37 µM | 7.73 µM |  | 41.6 |
| Cc1ccc2c(N)c(C(=O)N[C@H]3CCc4cc(N5CC6CCC(C5)N6)ccc4C3)sc2n1 | 4.08 | 2.03 | 2.59 | 2.63 | 1.96 | 18 | 1.8 | > 33 | 1.9 | 3 | 0.207 µM | 0.509 µM | 0.547 µM | 0.301 µM | 0.203 | 0.263 µM | 0.228 µM | 0.569 µM | 0.642 | 0.47 |
| O=C(Nc1ccc(Cl)cc1)c1cc2ccccc2cc1O | 7.77 | > 100 | > 100 | 6.67 | > 100 | > 100 | > 100 | > 100 | 5.51 | > 100 | 4.54 µM | 2.96 µM | 2.01 µM | 4.41 µM | 3.02 | 2.46 µM | 4.65 µM | 1.84 µM | 1.41 | 4.07 |
| CC(C(=O)Oc1ccc2ccccc2c1-c1c(O)ccc2ccccc12)c1ccccc1 (stereo not drawn) | 23.5 | 30 | 25.6 | 26.6 | 23.5 | 86.7 | 29.7 | 64.4 | 26.8 | 31 |  |  |  |  |  |  |  |  |  |  |
| Cc1c2cc[nH]c(=O)c2cc2c(=O)c3cnccc3[nH]c12 | > 100 | > 100 | > 100 | > 100 | > 100 | > 100 | > 100 | > 100 | > 100 | > 100 |  |  |  |  |  |  |  |  |  |  |
| O=C(NOCC1CC1)c1ccc(F)c(F)c1Nc1ccc(I)cc1Cl | 1.18 | 13.2 | 44.6 | 7.54 | 17.7 | > 35.3 | > 100 | 19.1 | 5.83 |  | 1.41 µM | 2.63 µM | 2.62 µM | 1.81 µM | 2.55 | 1.63 µM | 2.99 µM | 1.15 µM | 0.0927 | 0.0764 |

From PubChem BioAssay (NCI)
